Among the data in PubChem BioAssay (NCI) are TGI and GI50 values, retold here.

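Growth conditions: 96-well plates. Treatment: test compound, 48 hours, 5 concentrations. Analysis: linear interpolation between bracketing concentrations; unreached endpoints set to highest concentration. The concentration for 50% growth inhibition is given as GI50. TGI is the concentration that stops growth completely.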

Among the test systems are PC-3 prostate; MDA-MB-231 breast; UACC-257 melanoma; K-562 leukemia; NCI-H226 lung; OVCAR-4 ovarian; OVCAR-5 ovarian; NCI-H460 lung; BT-549 breast; IGROV1 ovarian.
What all share (experiment): growth of human tumour cells (NCI), 48 h

In the case of `C[C@]12CCC(=O)C=C1CC[C@@H]1[C@@H]2[C@@H](O)C[C@@]2(C)[C@H]1CC[C@]2(O)C(=O)COC(=O)C1CCCC1`, the TGI in the assay on PC-3 prostate, in the assay on MDA-MB-231 breast, in the assay on UACC-257 melanoma, in the assay with K-562 leukemia, in the assay on NCI-H226 lung and in the assay with OVCAR-4 ovarian was more than 100 µM throughout. In addition, the TGI with OVCAR-5 ovarian, in the assay with NCI-H460 lung, with BT-549 breast and in the assay on IGROV1 ovarian was more than 100 µM throughout.

In the case of `O=S(O)c1cc(Cl)cc(Cl)c1OCc1ccccc1`, the TGI in the assay with UACC-257 melanoma, in the assay with K-562 leukemia, in the assay with OVCAR-4 ovarian, in the assay with OVCAR-5 ovarian and in the assay with NCI-H460 lung was more than 100 µM in each case.

For `Cc1ccc(SSCCCCCS(=O)O)cc1`, the TGI in the assay on UACC-257 melanoma, with K-562 leukemia, in the assay on OVCAR-4 ovarian, in the assay with OVCAR-5 ovarian and with NCI-H460 lung was more than 100 µM in each case.

As to `CC(=O)C1=C(O)CCC1=O`, the TGI with PC-3 prostate, with UACC-257 melanoma, in the assay on K-562 leukemia, in the assay with NCI-H226 lung, in the assay on OVCAR-4 ovarian and in the assay with OVCAR-5 ovarian was more than 100 µM in each case. For the same compound, the TGI in the assay with NCI-H460 lung, with BT-549 breast and in the assay on IGROV1 ovarian was more than 100 µM each time.

`COc1ccc2nc3ccccc3c(NCc3ccc(C)cc3)c2c1`: the GI50 in the assay with PC-3 prostate is 1.64 µM; in the assay on MDA-MB-231 breast, 1.76 µM; in the assay with UACC-257 melanoma, 2.12 µM; in the assay on K-562 leukemia it was 1.61 µM; with NCI-H226 lung, 1.97 µM; in the assay on OVCAR-4 ovarian, 2.25 µM. Also, the GI50 with OVCAR-5 ovarian is 2.1 µM; with NCI-H460 lung, 1.97 µM; in the assay with BT-549 breast it was 2.01 µM; in the assay with IGROV1 ovarian, 2.19 µM. The TGI was 4.49 µM in the assay on PC-3 prostate; 4.12 µM in the assay with MDA-MB-231 breast; 5 µM with UACC-257 melanoma; more than 100 µM with K-562 leukemia; 5.12 µM with NCI-H226 lung; 6.51 µM in the assay on OVCAR-4 ovarian. For the same compound, the TGI with OVCAR-5 ovarian was 6.02 µM; in the assay on NCI-H460 lung, 4.15 µM; in the assay with BT-549 breast, 4.7 µM; with IGROV1 ovarian it was 6.34 µM.

Consider `Clc1ccc(-c2nnc(-c3c(Cl)c(Cl)c(Cl)c(Cl)c3-c3nc4ccccc4[nH]3)o2)cc1`, for which the TGI in the assay with PC-3 prostate, with UACC-257 melanoma, in the assay with K-562 leukemia, in the assay on NCI-H226 lung, in the assay with OVCAR-4 ovarian and in the assay on OVCAR-5 ovarian was more than 100 µM each time. Further, the TGI in the assay on NCI-H460 lung, in the assay on BT-549 breast and with IGROV1 ovarian was more than 100 µM each time.

For the compound `COc1cc2c(cc1OC)-c1cc3ccc(OC)c(OC)c3c[n+]1CC2`, the TGI in the assay on PC-3 prostate, in the assay on MDA-MB-231 breast, in the assay with UACC-257 melanoma, with K-562 leukemia, in the assay with NCI-H226 lung and in the assay with OVCAR-4 ovarian was more than 100 µM in each case. Moreover, the TGI in the assay with OVCAR-5 ovarian, in the assay with NCI-H460 lung, in the assay on BT-549 breast and in the assay with IGROV1 ovarian was more than 100 µM in each case.

As to `C[N+](C)(CCO)CCN1c2ccccc2Sc2ccccc21`, the TGI in the assay on PC-3 prostate, in the assay with MDA-MB-231 breast, in the assay on K-562 leukemia, with NCI-H226 lung, in the assay with OVCAR-4 ovarian and in the assay on OVCAR-5 ovarian was more than 10 µM each time. Moreover, the TGI in the assay on NCI-H460 lung and in the assay with IGROV1 ovarian was more than 10 µM throughout.

As to `Fc1c(F)c(C(F)(F)F)c(F)c(F)c1N/N=C/c1cn(Cc2ccccc2)c2ccccc12`, the TGI was 79.2 µM with PC-3 prostate; 45.6 µM in the assay on MDA-MB-231 breast; 54 µM with UACC-257 melanoma; 87.1 µM in the assay with K-562 leukemia; 78.9 µM with OVCAR-4 ovarian; 41.9 µM in the assay with OVCAR-5 ovarian. Besides, the TGI in the assay on NCI-H460 lung was 27.9 µM; with BT-549 breast, 80.7 µM; in the assay on IGROV1 ovarian it was more than 100 µM.

Regarding `COc1ccc2c(c1)CC[C@@H]1[C@@H]2CC[C@]2(C)C(=O)/C(=C/c3ccc(O)c(OC)c3)C[C@@H]12`, the TGI with PC-3 prostate, with MDA-MB-231 breast, with UACC-257 melanoma, with K-562 leukemia, with NCI-H226 lung and with OVCAR-4 ovarian was more than 100 µM throughout. The TGI in the assay with OVCAR-5 ovarian, in the assay on NCI-H460 lung and in the assay with IGROV1 ovarian was more than 100 µM throughout.

As to `COc1ccc(C2C(C=O)C(N3CCN(C)CC3)=Nc3nc4ccccc4n32)cc1` (centres undefined), the TGI in the assay with PC-3 prostate stood at 36.9 µM; in the assay on MDA-MB-231 breast, 31.4 µM; with UACC-257 melanoma, 41 µM; in the assay on K-562 leukemia, 14.9 µM; in the assay on NCI-H226 lung, 38.2 µM; with OVCAR-4 ovarian, 48.2 µM. Moreover, the TGI in the assay on OVCAR-5 ovarian was determined as 59.7 µM; in the assay with NCI-H460 lung it was 91.1 µM; with BT-549 breast, 29.4 µM; in the assay on IGROV1 ovarian it was 31.7 µM.

For `O=C1C[C@H](CCC(=O)OCc2ccccc2)NC(=O)C[C@H](CCC(=O)OCc2ccccc2)NC(=O)C[C@H](CCC(=O)OCc2ccccc2)N1`, the TGI is more than 100 µM in the assay with PC-3 prostate; 78.3 µM with MDA-MB-231 breast; more than 100 µM in the assay with UACC-257 melanoma; more than 100 µM in the assay on K-562 leukemia; more than 100 µM with NCI-H226 lung; more than 100 µM in the assay with OVCAR-4 ovarian. Also, the TGI in the assay on OVCAR-5 ovarian, in the assay with NCI-H460 lung, in the assay on BT-549 breast and with IGROV1 ovarian was more than 100 µM each time.

Regarding `COc1cc2c(cc1OCCCN1CCN(c3ncnc4ccccc34)CC1)N=CC1CCCN1C2=O` (centres undefined), the GI50 in the assay on PC-3 prostate is 0.0232 µM; in the assay on MDA-MB-231 breast, 0.0205 µM; in the assay on UACC-257 melanoma it was 0.15 µM; in the assay on K-562 leukemia, 0.0262 µM; in the assay with NCI-H226 lung, 0.0348 µM; with OVCAR-4 ovarian it was 0.0633 µM. Besides, the GI50 in the assay on OVCAR-5 ovarian was 0.0263 µM; in the assay on NCI-H460 lung, 0.0282 µM; with BT-549 breast, 0.0248 µM; in the assay with IGROV1 ovarian it was 0.0126 µM. For the same compound, the TGI with PC-3 prostate amounted to 0.0973 µM; in the assay on MDA-MB-231 breast, 0.0736 µM; in the assay on UACC-257 melanoma, 0.737 µM; with NCI-H226 lung it was 0.247 µM; with OVCAR-4 ovarian it was 8.63 µM; in the assay with OVCAR-5 ovarian it was 0.0717 µM. In addition, the TGI with NCI-H460 lung turned out to be 0.298 µM; in the assay with BT-549 breast, 0.0895 µM; with IGROV1 ovarian, 0.0269 µM.

`O=c1/c(=C/c2ccc([N+](=O)[O-])o2)sc2n1[C@@H](c1ccc3c(c1)OCO3)C=C(c1cc(F)c(Cl)cc1Cl)N=2`: the TGI in the assay with PC-3 prostate is more than 100 µM; in the assay on MDA-MB-231 breast, 50.4 µM; in the assay on UACC-257 melanoma, 34.8 µM; in the assay with K-562 leukemia it was more than 100 µM; in the assay on NCI-H226 lung, more than 100 µM; in the assay on OVCAR-4 ovarian it was 32.6 µM. For the same compound, the TGI was 43.8 µM in the assay with OVCAR-5 ovarian, 49.8 µM in the assay on NCI-H460 lung, 35.1 µM in the assay with BT-549 breast and 33.4 µM in the assay on IGROV1 ovarian.

For `N#C[S-].[Ce+3].c1cnc2c(c1)ccc1cccnc12.c1cnc2c(c1)ccc1cccnc12.c1cnc2c(c1)ccc1cccnc12`, the TGI was 18.9 µM in the assay with UACC-257 melanoma; more than 100 µM in the assay with K-562 leukemia; 8.24 µM in the assay on NCI-H226 lung; 20.5 µM with OVCAR-4 ovarian; 16.1 µM with OVCAR-5 ovarian; more than 100 µM with IGROV1 ovarian.

Take `NC(CC(=O)O)(Cc1ccccc1)C(=O)O` (centres undefined): the TGI with PC-3 prostate, with MDA-MB-231 breast, in the assay on UACC-257 melanoma, in the assay on K-562 leukemia, with NCI-H226 lung and with OVCAR-4 ovarian was more than 100 µM in each case. Further, the TGI with OVCAR-5 ovarian, in the assay on NCI-H460 lung, with BT-549 breast and in the assay with IGROV1 ovarian was more than 100 µM in each case.

With `Cn1c(=O)c2c(nc(NCCNc3nc4c(c(=O)n(C)c(=O)n4C)n3C)n2C)n(C)c1=O`, the TGI in the assay with PC-3 prostate, with MDA-MB-231 breast, in the assay on UACC-257 melanoma, with K-562 leukemia, with NCI-H226 lung and in the assay on OVCAR-4 ovarian was more than 100 µM in each case. For the same compound, the TGI in the assay with OVCAR-5 ovarian, in the assay with NCI-H460 lung, in the assay on BT-549 breast and in the assay with IGROV1 ovarian was more than 100 µM in each case.
